The target in data set [1] is T1, thymidylate synthase (TS) (Homo sapiens, UniProt P04818).
T1 construct: endogenous in cells; host or cells: tissues of treated patients (in vivo)
The following applies: ref Ford et al, 2002, cited from earlier work.

Data set [2] concerns ovarian cancer. Conditions: relapsed ovarian cancer, cited from earlier work.
Data set [3] is described as follows: clinical. Conditions: human, plasma.
Description: (§1) Prior to each assay the plasma samples were centrifuged at 3000 g for 5 min × 2, to sediment precipitants that would block pipette tips.
(§2) All dilutions required for the ELISA were performed by Multiprobe II automated liquid handling equipment (Perkin-Elmer, Cambridge, UK). […] Following further incubation and washing steps, the optical absorbance was read and plotted using a four-parameter logistic curve fitted by nonlinear regression as previously described ([Aherne et al, 2001]).
(§3) PK analysis was performed using WinNonlin Software, version 3.2 (Pharsight Corp., CA, USA). […] The following PK parameters were evaluated: maximum plasma concentration (Cmax), area under the plasma concentration–time curve (AUC), total body clearance (Cl), volume of distribution at steady state (Vss) and the terminal half-life (t1/2).
For data set [4] the following is noted: cited from earlier work.
On the set-up of data set [5]: method as in Plummer et al, 2003. Conditions: ref Plummer et al, 2003, cited from earlier work; for AUC: mass spectroscopy.
A short description of data set [6]: BGC9331 plasma pharmacokinetics by ELISA in phase I patients. The following applies: for Median Cmax / Median plasma clearance: ±s.d.; for AUClast / Cl_obs / Cmax / HL_Lambda_z / Vz_obs: BGC9331 65 mg m^−2, carboplatin AUC 5. Background: An ELISA detects its analyte on a solid surface through an enzyme-linked reagent.
Description: as §1, §2, §3
Data set [7] has as its system folyl-polyglutamate synthase (FPGS). Also noted: method as in Jackman et al, 1993. Conditions: compared to RTX; ref Jackman et al, 1993; cited from earlier work.
For data set [8], the system named is human ovarian tumour cell lines. Conditions: ref Kelland et al, 1995; cited from earlier work.
Data set [9] is described as follows: Carboplatin pharmacokinetics by flameless atomic absorption spectrophotometry (FAAS). Conditions: free carboplatin, carboplatin AUC 5 with BGC9331. The procedure: Carboplatin was measured by FAAS. This method has been previously described ([LeRoy et al, 1977]). Samples were analysed on a Perkin-Elmer HGA800, AA300 Flameless atomic absorption spectrophotometer, and a Platinum Lumina HCC lamp (Perkin-Elmer, Beaconsfield, UK).
Calibration standards were prepared individually for each assay batch by adding Carboplatin standards to control human plasma and ultrafiltrate. A blank was made using either plasma or ultrafiltrate only. A range of standards was made ranging from 5 to 50 ng ml^−1 Pt (plasma samples) to 10–150 ng ml^−1 Pt (ultrafiltrates).
For plasma analysis, three QCs were included in duplicate, ranging from low (15ng ml^−1 Pt) to medium (25 ng ml^−1 Pt) and high (45 ng ml^−1 Pt), by diluting stock solutions with plasma. For ultrafiltrate analysis low (20 ng ml^−1 Pt), medium (60 ng ml^−1 Pt) and high (120 ng ml^−1 Pt) QCs and stock solutions were diluted with plasma ultrafiltrate. A run was acceptable if four out of six QCs were within 15% of nominal concentration.

Where [10] appears, read: dose level 1 (BGC9331 40 mg m^−2, carboplatin AUC 5), day 1.
Setting [11] is: dose level 1 (BGC9331 40 mg m^−2, carboplatin AUC 5), day 8.
Where [12] appears, read: dose level 2 (BGC9331 65 mg m^−2, carboplatin AUC 5), day 1.
Setting [13] is: dose level 2 (BGC9331 65 mg m^−2, carboplatin AUC 5), day 8.

Values joined by “and” are separate entries in the source; they are usually repeats but may differ in a detail not shown here. Equal values may be shown once. Read-outs that look alike come from different tables or passages of the source.

We go through five molecules from PMC2361661 (British Journal of Cancer, 2005).

T1 sequence (P04818 2-313 limits assumed): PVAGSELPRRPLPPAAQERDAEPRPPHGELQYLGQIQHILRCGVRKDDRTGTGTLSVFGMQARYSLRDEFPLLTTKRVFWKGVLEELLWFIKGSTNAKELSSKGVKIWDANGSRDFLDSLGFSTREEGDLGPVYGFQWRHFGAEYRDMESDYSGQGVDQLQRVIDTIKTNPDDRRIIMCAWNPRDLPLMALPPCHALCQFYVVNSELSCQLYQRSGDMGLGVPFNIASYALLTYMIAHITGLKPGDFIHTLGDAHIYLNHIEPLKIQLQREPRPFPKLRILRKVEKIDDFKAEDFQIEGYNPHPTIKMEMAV

As for `O=c1[nH]cc(F)c(=O)[nH]1` [5-FU, 5-fluorouracil], the “peak dUrd elevation” value was 235±125% in [1] (bolus 5-FU) and 228±86% in data set [1] (infusional 5-FU). The response rate in data set [2] (ref Look et al, 1995) was 14%.
Usually AUC stands for concentration integrated over time. A word on the Cmax: it is the peak of the concentration-time curve. As usually defined, the Tmax is the time from dosing to the highest level. `C#CCN(Cc1cc2c(=O)[nH]c(C)nc2cc1C)c1ccc(C(=O)N[C@@H](CCc2nnn[nH]2)C(=O)O)c(F)c1` [BGC9331]: the AUC is 110 µg·h/mL in [3] (40 mg), 140 µg·h/mL in [3] (65 mg), 176 µg·h/mL in [5] (BGC9331 monotherapy 42 mg m^−2) and 322 µg·h/mL in [5] (BGC9331 monotherapy 69 mg m^−2). Also, the Cmax is 7260 ng/mL in data set [3] (40 mg); 10400 ng/mL in data set [3] (65 mg); 10.4 µg/mL in data set [5] (BGC9331 monotherapy 42 mg m^−2); 19.1 µg/mL in [5] (BGC9331 monotherapy 69 mg m^−2); 16.8 µg/mL in data set [6] (patient 4, administration 1); 10.4 µg/mL in data set [6] (patient 4, administration 2). Besides, the peak concentration (Cmax) stood at 16.6 µg/mL in [6] (patient 5, administration 1); 16.7 µg/mL in data set [6] (patient 5, administration 2); 9.3 µg/mL in data set [6] (patient 6, administration 2). Further, the Tmax in data set [3] (65 mg) is 30 min. For the same molecule, the “patients with grade 3 or 4 neutropaenia” value in data set [4] (BGC9331 130 mg m^−2 days 1 and 8 with cisplatin 75 mg m^−2, ref Bilenker et al, 2004) was “three of the four”. Moreover, the “patients affected by diarrhoea” value in data set [4] (previous studies, ref Rader et al, 2003) is 36%. Further, the “recommended single-agent phase II dose” value in data set [4] (ref Plummer et al, 2003) was 130 mg m^−2. Moreover, the “Median Cmax” value in [6] (setting [10]) is 11.2 ± 2.5 µg/mL and 11.21 µg/mL; in data set [6] (setting [11]), 7.3 ± 5.0 µg/mL; in data set [6] (setting [12]), 16.5 ± 2.4 µg/mL and 16.54 µg/mL; in data set [6] (setting [13]) it was 10.4 ± 4.0 µg/mL. Also, the Median plasma clearance in data set [6] (setting [10]) is 478 ± 61 mL/h; in data set [6] (setting [11]), 971 ± 265 mL/h; in [6] (setting [12]), 1197 ± 580 mL/h; in data set [6] (setting [13]) it was 746 ± 584 mL/h. Also, the AUClast amounted to 90.4 µg·mL/h in [6] (patient 4, administration 1); 68.4 µg·mL/h in [6] (patient 4, administration 2); 264.6 µg·mL/h in [6] (patient 5, administration 1); 193.3 µg·mL/h in data set [6] (patient 5, administration 2); 141.3 µg·mL/h in data set [6] (patient 6, administration 2). The Cl_obs turned out to be 1197.5 mL/h in data set [6] (patient 4, administration 1); 1646.5 mL/h in data set [6] (patient 4, administration 2); 378.4 mL/h in [6] (patient 5, administration 1); 549.2 mL/h in data set [6] (patient 5, administration 2); 746.0 mL/h in data set [6] (patient 6, administration 2). In addition, the HL_Lambda_z is 18.2 h in data set [6] (patient 4, administration 1); 27.8 h in [6] (patient 4, administration 2); 25.5 h in data set [6] (patient 5, administration 1); 28.1 h in [6] (patient 6, administration 2). For the same molecule, the Vz_obs in data set [6] (patient 4, administration 1) was determined as 31423.8 mL; in data set [6] (patient 4, administration 2), 66088.6 mL; in [6] (patient 5, administration 1) it was 13891.3 mL; in data set [6] (patient 5, administration 2), 17208.1 mL; in [6] (patient 6, administration 2), 30257.3 mL.
Take `C#CCN(Cc1ccc2nc(N)[nH]c(=O)c2c1)c1ccc(C(=O)N[C@@H](CCC(=O)O)C(=O)O)cc1` [CB3717, N10-propargyl-5,8-dideazafolic acid]: the “substrate for FPGS” value in data set [7] is reported as “relatively poor substrate”. In data set [8], the “cross-resistance to platinum-based agents” value is listed as “non crossresistance”.
One may read the Vss as the apparent volume that relates the amount in the body to the concentration in plasma or blood. `N.N.O=C([O-])C1(C(=O)[O-])CCC1.[Pt+2]` [carboplatin]: the Alpha_HL in data set [9] (patient 1, dose level 1) came out at 2.2 h; in data set [9] (patient 3, dose level 1), 1.2 h; in [9] (patient 4, dose level 2) it was 2.4 h; in data set [9] (patient 5, dose level 2), 1.5 h; in [9] (patient 6, dose level 2), 1.8 h; in data set [9] (patient 14, dose level 3), 0.4 h. Moreover, the Beta_HL in data set [9] (patient 1, dose level 1) is recorded as 50.3 h; in data set [9] (patient 3, dose level 1), 8.2 h; in [9] (patient 4, dose level 2) it was 100.9 h; in data set [9] (patient 5, dose level 2), 92.0 h; in data set [9] (patient 6, dose level 2) it was 60.4 h; in data set [9] (patient 14, dose level 3), 2.6 h. The CL amounted to 8.7 L/h in data set [9] (patient 1, dose level 1); 4.8 L/h in [9] (patient 3, dose level 1); 7.0 L/h in [9] (patient 4, dose level 2); 6.0 L/h in [9] (patient 5, dose level 2); 6.7 L/h in [9] (patient 6, dose level 2); 6.1 L/h in data set [9] (patient 14, dose level 3). In addition, the V2 was 91.2 L in [9] (patient 1, dose level 1); 15.1 L in data set [9] (patient 3, dose level 1); 158.5 L in data set [9] (patient 4, dose level 2); 101.0 L in [9] (patient 5, dose level 2); 88.9 L in data set [9] (patient 6, dose level 2); 8.6 L in data set [9] (patient 14, dose level 3). For the same molecule, the Vss stood at 123.3 L in data set [9] (patient 1, dose level 1); 27.1 L in [9] (patient 3, dose level 1); 186.5 L in data set [9] (patient 4, dose level 2); 115.6 L in data set [9] (patient 5, dose level 2); 109.7 L in data set [9] (patient 6, dose level 2); 16.5 L in [9] (patient 14, dose level 3).
As for `Cc1nc2ccc(CN(C)c3ccc(C(=O)N[C@@H](CCC(=O)O)C(=O)O)s3)cc2c(=O)[nH]1` [raltitrexed], the “cross-resistance to platinum-based agents” value in data set [8] is given as “non crossresistance”. Moreover, in data set [1] (RTX on a 21-day cycle), the “day on which dUrd reapproaches baseline” value is around 15 days and the “peak percentage rise of dUrd” value was 349±128%. Further, the response rate in [2] (ref Gore et al, 1995) was 7%. Moreover, the response rate in data set [2] (ref Muggia et al, 1998) is listed as 11%.
